The subject of data set [1] is HIV-1 (IIIB), HIV-1 (NL4.3). The data set can be described thus: microbe, parasite or virus in culture. In kind it is cell-based. The following applies: for EC50: Human immunodeficiency virus 1, IIIB, MT4, MT-4 cells, 50% protection against HIV-induced cytopathogenic effect, MTT; for SI: selectivity index, ratio of CC50 to EC50. The method, then: (§1) A rapid and automated assay procedure was used for the in vitro evaluation of anti-HIV agents. An HTLV-1 transformed T4-cell line MT-4, which was previously shown to be highly susceptible to and permissive for HIV infection, served as the target cell line. Inhibition of the HIV-induced cytopathogenic effect was used as the end point. The viabitlity of both HIV- and mock-infected cells was assessed spectrophotometrically via in situ reduction of 3-(4,5-dimethylthiazol-2-yl)-2,5-diphenyltetrazolium bromide (MTT). The 50% cytotoxic concentration (CC50 in μM or μg/ml) was defined as the concentration of compound that reduced the absorbance of the mock-infected control sample by 50%. The percent protection achieved by the compound in HIV-infected cells was calculated by the following formula:
(§2) [formula] whereby (ODT)HIV is the optical density measured with a given concentration of the test compound in HIV-infected cells; (ODC)HIV is the optical density measured for the control untreated HIV-infected cells; (ODC)MOCK is the optical density measured for the control untreated mock-infected cells; all optical density values were determined at 540 nm. The dose achieving 50% protection according to the above formula was defined as the 50% inhibitory concentration (EC50 in μM or μg/ml). The ratio of CC50 to EC50 was defined as the selectivity index (SI). […] Examples of inhibition of cell proliferation by particular compounds of the invention can be found by looking at the respective CC50 values in the MT-4 cell line. Cells:
(§3) MT-4 cells (Miyoshi et al., 1982) were grown and maintained in RPMI 1640 medium supplemented with 10% heat-inactivated fetal calf serum, 2 mM I-glutamine, 0.1% sodium bicarbonate, and 20 μg of gentamicin per ml. Alternatively, the MT-4 cells may also be grown in RPMI 1640 medium supplemented with 10% FCS and 20 μg/ml of gentamicin (RPMI-complete).
The HIV-1 (IIIB) strain (Popovic et al., 1984) as well as the HIV-1 (NL4.3) strain (Adachi et al., J. Virol. 59, 284-291 (1986)) were used.
In general terms: Damage to the host cells serves as the signal in cytopathic effect assays.

Data set [2] is described as follows: Cytotoxicity in mock-infected MT-4 cells (MTT). In kind it is cell-based. The note with it: human, 50% cytotoxic concentration. Here is the method: as §1, §2, §3
Data set [3] deals with LEDGF/p75-HIV-1 integrase interaction (Human immunodeficiency virus type 1 group M subtype B (isolate HXB2) (HIV-1), UniProt P04585). Description: AlphaScreen assay of LEDGF-integrase interaction inhibition. In kind it is binding. The method, then:
Alphascreen Assay to Measure the LEDGF-Integrase Interaction Inhibitory Activity of Compounds of the Invention
The AlphaScreen assay was performed according to the manufacturer's protocol (Perkin Elmer, Benelux). Reactions were performed in 25 μl final volume in 384-well Optiwell™ microtiter plates (Perkin Elmer). The reaction buffer contained 25 mM Tris-HCl (pH 7.4), 150 mM NaCl, 1 mM MgCl2, 0.01% (v/v) Tween-20 and 0.1% (w/v) bovine serum albumin. His6-tagged integrase (300 nM final concentration) was incubated with the compounds for 30 min at 4° C. The compounds were added at varying concentrations spanning a wide range from 0.1 up to 100 μM. Afterwards 100 nM flag-LEDGF/p75 was added and incubation was prolonged for an additional hour at 4° C. Subsequently 5 μl of Ni-chelate-coated acceptor beads and 5 μl anti-flag donor beads were added to a final concentration of 20 μg/ml of both beads. Proteins and beads were incubated for 1 h at 30° C. in order to allow association to occur. Exposure of the reaction to direct light was omitted as much as possible and the emission of light from the acceptor beads was measured in the EnVision plate reader (Perkin Elmer, Benelux) and analyzed using the EnVision manager software. IN/DNA binding was analyzed in a similar setting using His6-tagged integrase (1 μM final concentration) and an oligodeoxynucleotide mimicking the IN ELISA oligonucleotide substrate (30 nM final concentration). Counterscreens with JPO2 or PogZ, respectively, were essentially performed as described previously.
His6-tagged HIV-1 integrase, 3xflag-tagged LEDGF/p75, MBP-JPO2 and MBP-PogZ were purified for AlphaScreen applications as described previously 23,25,56.
For orientation: Alpha assays give light when donor and acceptor beads are brought close together.

Where [4] appears, read: His6-tagged integrase 300 nM, flag-LEDGF/p75 100 nM, read-out: Alphascreen IC50.

Read-outs that look alike come from different tables or passages of the source.

The EC50 is the midpoint of the concentration-response curve. A high value points to weaker potency. Usually CC50 stands for the concentration at which the toxic effect on the cells reaches its halfway point. As usually defined, the IC50 is the concentration that inhibits the measured activity by half. In data set [1], `CCCC(C(=O)O)c1c(C)nc2sc3c(c2c1-c1ccc(C)cc1)CCN(Cc1ccccc1)C3` (stereo not shown) [Cpd 163, 2-[7-Benzyl-2-methyl-4-(p-tolyl)-5,6,7,8-tetrahydro-9-thia-1,7-diaza-fluoren-3-yl]pentanoic acid] came in with an EC50 greater than 23 µM. The same compound had a CC50 in data set [2] of 23 µM. Further, the IC50 in data set [3] (setting [4]) stood at 4.5 µM.

For the compound `CCCC(C(=O)O)c1c(C)nc2sc3c(c2c1-c1cccs1)CCC3` (stereo not shown) [Cpd 130, 2-[2-Methyl-4-(2-thienyl)-6,7-dihydro-5H-cyclopenta[4,5]thieno[2,3-b]pyridin-3-yl]pentanoic acid], in data set [1], the EC50 was 29.6 µM and the SI came out at 4. The CC50 in data set [2] is 130 µM. Further, the IC50 in data set [3] (setting [4]) came out at 30.6 µM.

Regarding `CCCC(C(=O)O)c1c(C)nc2sc3c(c2c1-c1ccc(C)cc1)CCOC3` (stereo not shown) [Cpd 133, 2-[2-Methyl-4-(p-tolyl)-5,8-dihydro-6H-7-oxa-9-thia-1-aza-fluoren-3-yl]pentanoic acid], in data set [1], the midpoint of the response, the EC50, lay at 18 µM and the SI was 8. Also, the CC50 in data set [2] was 165 µM. In data set [3] (setting [4]), the IC50 came out at 7.8 µM.

With `CCC[C@H](C(=O)O)c1c(C)nc2sc3c(c2c1-c1ccc(C)cc1)CCCC3` [Cpd 114, (2S)-[2-Methyl-4-p-tolyl-5,6,7,8-tetrahydro[1]benzothieno[2,3-b]pyridin-3-yl]pentanoic acid], in data set [1], the EC50 was found to be 0.58 µM and the SI came to 217. Besides, in data set [2], the CC50 turned out to be 126 µM. Moreover, in data set [3] (setting [4]), the IC50 was less than 1 µM.

In the case of `CCCC(C(=O)O)c1c(C)nc2sc3c(c2c1-c1cccc(OC)c1)CCCC3` (stereo not shown) [Cpd 144, 2-[2-Methyl-4-(m-anisyl)-5,6,7,8-tetrahydro[1]benzothieno[2,3-b]pyridin-3-yl]pentanoic acid], in data set [1], a half-maximal effect (EC50) was put at 20 µM and the SI is listed as 3. This compound yielded a CC50 in data set [2] of 63 µM. Further, in data set [3], it took 6.64 µM to reach half-maximal inhibition (IC50).

For `Cc1ccc(-c2c(C(CCC(F)(F)F)C(=O)O)c(C)nc3sc4c(c23)CCCC4)cc1` (stereo not shown) [Cpd 158, 2-[2-Methyl-4-(p-tolyl)-5,6,7,8-tetrahydro[1]benzothieno[2,3-b]pyridin-3-yl]-5,5,5-trifluoropentanoic acid], in data set [1], the EC50 worked out at 5.48 µM and the SI is 11. Moreover, the CC50 in data set [2] was 58.5 µM. The IC50 in data set [3] (setting [4]) is 13.5 µM.

On to `CCCC(C(=O)O)c1c(C)nc2sc3c(c2c1-c1ccc(C)cc1)CCCC3` (stereo not shown) [Cpd 113, 2-[2-Methyl-4-p-tolyl-5,6,7,8-tetrahydro[1]benzothieno[2,3-b]pyridin-3-yl]pentanoic acid], for which, in data set [1], the EC50 came out at 0.44 µM and the SI came to 183. This compound also returned a CC50 in data set [2] of 80.6 µM. In addition, in data set [3] (setting [4]), the IC50 is 0.75 µM.

Consider `Cc1ccc(-c2c(C(C(=O)O)C(C)C)c(C)nc3sc4c(c23)CCCC4)cc1` (stereo not shown) [Cpd 156, 2-[2-Methyl-4-(p-tolyl)-5,6,7,8-tetrahydro[1]benzothieno[2,3-b]pyridin-3-yl]-3-methylbutanoic acid], for which the EC50 in data set [1] was greater than 98 µM. Moreover, in data set [2], the CC50 was found to be 98 µM. In addition, in data set [3] (setting [4]), the IC50 was 59.6 µM.

Regarding `CCCC(C(=O)O)c1c(C)nc2scc(C)c2c1-c1ccc(C)cc1` (stereo not shown) [Cpd 118, 2-(3,6-Dimethyl-4-p-tolylthieno[2,3-b]pyridin-5-yl)pentanoic acid], the 50% effective concentration (EC50) in data set [1] is greater than 50.2 µM. For the same compound, in data set [2], it took 50.2 µM to reach half-maximal cytotoxicity (CC50). In data set [3] (setting [4]), the IC50 was 23.4 µM.

As to `CCCC(C(=O)O)c1c(C)nc2sc3c(c2c1-c1ccc2c(c1)OCO2)CCCC3` (stereo not shown) [Cpd 146, 2-[2-Methyl-4-(benzo[d][1,3]dioxol-5-yl)-5,6,7,8-tetrahydro[1]benzothieno[2,3-b]pyridin-3-yl]pentanoic acid], in data set [1], it took 2.98 µM to reach a half-maximal effect (EC50) and the SI was 42. In data set [2], this compound yielded a CC50 of 124 µM. In addition, the IC50 in data set [3] (setting [4]) was 4.76 µM.

Consider `COCCC(C(=O)O)c1c(C)nc2sc3c(c2c1-c1ccc(C)cc1)CCC3` (stereo not shown) [Cpd 122, 2-[2-methyl-4-(p-tolyl)-6,7-dihydro-5H-cyclopenta[4,5]thieno[2,3-b]pyridin-3-yl]-4-O-methoxy-butanoic acid], for which, in data set [1], the EC50 was 5.3 µM and the SI was 15. In data set [2], this compound came in with a CC50 of 79.8 µM. In data set [3] (setting [4]), the IC50 was 3.2 µM.

As for `Cc1nc2sc3c(c2c(-c2cccnc2)c1C(OC(C)(C)C)C(=O)O)CCCC3` (stereo not shown) [Cpd 173, 2-[2-Methyl-4-(pyridin-3-yl)-5,6,7,8-tetrahydro[1]benzothieno[2,3-b]pyridin-3-yl]-2-tert-butoxyacetic acid], in data set [1], the EC50 came out at 4.51 µM and the SI worked out at 50. Further, the CC50 in data set [2] turned out to be 225 µM. In data set [3] (setting [4]), the IC50 turned out to be 5.9 µM.

On to `CCOC(C(=O)O)c1c(C)nc2sc3c(c2c1-c1ccc(C)cc1)CCCC3` (stereo not shown) [Cpd 171, 2-[2-Methyl-4-p-tolyl-5,6,7,8-tetrahydro[1]benzothieno[2,3-b]pyridin-3-yl]-2-ethoxyacetic acid], for which, in data set [1], the response was half-maximal at 0.112 µM (EC50) and the SI was determined as 1166. In data set [2], the CC50 stood at 130 µM. The IC50 in data set [3] (setting [4]) is 1.21 µM.

In data set [1], `CCc1sc2nc(C)c(CC(=O)O)c(-c3ccc(C)cc3)c2c1C` [Cpd 105, (2-Ethyl-3,6-dimethyl-4-p-tolylthieno[2,3-b]pyridin-5-yl)acetic acid] showed an EC50 greater than 62.7 µM. Half-maximal cytotoxicity in data set [2] (CC50) was put at 62.7 µM. In addition, in data set [3] (setting [4]), the IC50 stood at 64.3 µM.

`Cc1ccc(-c2c(C(Cc3ccccc3)C(=O)O)c(C)nc3sc4c(c23)CCC4)cc1` (stereo not shown) [Cpd 134, 2-[2-Methyl-4-(4-methylphenyl)-6,7-dihydro-5H-cyclopenta[4,5]thieno[2,3-b]pyridin-3-yl]-3-phenylpropanoic acid] registered an EC50 in data set [1] greater than 114 µM. In data set [2], this compound yielded a CC50 of 114 µM. In addition, the IC50 in data set [3] (setting [4]) came out at 84.1 µM.

Turning to `CCCC(C(=O)O)c1c(C)nc2sc3c(c2c1-c1ccc(OC)c(OC)c1)CCCC3` (stereo not shown) [Cpd 145, 2-[2-Methyl-4-(3,4-dimethoxyphenyl)-5,6,7,8-tetrahydro[1]benzothieno[2,3-b]pyridin-3-yl]pentanoic acid], in data set [1], the EC50 is 123 µM and the SI is given as greater than 1. In addition, the CC50 in data set [2] was greater than 125 µM. In data set [3] (setting [4]), the IC50 worked out at 29.6 µM.

Regarding `Cc1ccc(-c2c(C(CC(C)C)C(=O)O)c(C)nc3sc4c(c23)CCCC4)cc1` (stereo not shown) [Cpd 136, 2-[2-Methyl-4-(p-tolyl)-5,6,7,8-tetrahydro[1]benzothieno[2,3-b]pyridin-3-yl]-4-methylpentanoic acid], in data set [1], the EC50 amounted to 1.02 µM and the SI is reported as 85. The CC50 in data set [2] was found to be 86.4 µM. The IC50 in data set [3] (setting [4]) was determined as 4.34 µM.

For `CCCC(C(=O)O)c1c(C)nc2sc3c(c2c1-c1ccc(C)cc1OC)CCCC3` (stereo not shown) [Cpd 160, 2-[2-methyl-4-(2-methoxy-4-methylphenyl)-5,6,7,8-tetrahydro[1]benzothieno[2,3-b]pyridin-3-yl]pentanoic acid], in data set [1], the EC50 came to 14.4 µM and the SI is 5. This compound registered a CC50 in data set [2] of 74 µM. Further, the IC50 in data set [3] (setting [4]) amounted to 17.7 µM.

In turn, `Cc1ccc(-c2c(C(CCc3ccccc3)C(=O)O)c(C)nc3sc4c(c23)CCCC4)cc1` (stereo not shown) [Cpd 155, 2-[2-Methyl-4-(p-tolyl)-5,6,7,8-tetrahydro[1]benzothieno[2,3-b]pyridin-3-yl]-4-phenylbutanoic acid] yielded an EC50 in data set [1] greater than 22 µM. In addition, in data set [2], the CC50 was 22 µM. Besides, the IC50 in data set [3] (setting [4]) amounted to 81.9 µM.

These data come from US8785638B2, “Thieno [2, 3-B] pyridine derivatives as viral replication inhibitors” (Katholieke Universiteit Leuven, priority 2009, dated 2014).
